Read-outs that look alike come from different tables or passages of the source.

Data set [1] has as its system primary rabbit kidney proximal tubule (RPT) cells.
Another data set has as its system L1210/0. It counts as in vivo, mice.
The next data set concerns L1210/CPA. Format: in vivo, mice.
Another data set deals with P388/0. Format: in vivo, mice.
A further data set concerns P388/CPA. It counts as in vivo, mice.
For a further data set, the system named is human lox-IMVI melanoma. Format: in vivo.
In another data set the test system is B16 Melanoma. Set-up: species or system mice. The conditions noted are these: mouse, in vivo.
The test system of data set [2] is mice. Nature of the data set: Tolerability of IPM in tumor-bearing mice (Example 4 studies). The conditions noted are these: IP and IV treatment. Format: in vivo. The source says:
This example describes the evaluation of IPM against several different cancer cell lines implanted in mice.

The subject of data set [3] is mice. To be noted: 75 mg/kg, either sex.
A short description of another data set: in vivo. The conditions noted are these: rat, po.
The mark [4] stands for this setting: 200 mg/kg IP day 2 only, male CDF1 mice.
The mark [5] stands for this setting: 175 mg/kg IP day 1 only, female CDF1 mice.
The mark [6] stands for this setting: 265 mg/kg IP day 1 only, female CDF1 mice.

As for `O=P1(NCCCl)OCCC(O)N1CCCl` (stereo not shown) [4-hydroxyifosfamide], in data set [1], the cell death entry is on record as “extensive cell death”.
Take `O=P1(N(CCCl)CCCl)NCCCO1` (stereo not shown) [CPA, cyclophosphamide]: the “Net log10 Reduction in tumor burden after therapy” value (“Net log10 Reduction” below) was 7 log10 in the data set on L1210/0 (setting [4]); 4 log10 in the data set on L1210/CPA (setting [4]); 7 log10 in the data set with P388/0 (setting [5]); 7 log10 in the data set on P388/0 (setting [6]); 3 log10 in the data set with P388/CPA (setting [5]); 3 log10 with P388/CPA (setting [6]). Also, in the data set on human lox-IMVI melanoma (40 mg/kg/dose IV Q1 D × 5, nude mice), the “Median Day of Death” value is 42.0 days.
On to `O=P1(NCCCl)OCCC(OO)N1CCCl` (stereo not shown) [HIFA, 4-hydroperoxyifosfamide], for which, in data set [1], the effect on viability result is given as “did not significantly affect viability”.
Take `O=P(O)(NCCCl)NCCCl` [IPM, N,N′-di(2-chloroethyl)phosphorodiamidic acid]: the “Net log10 Reduction” value with L1210/0 (mouse, in vivo) is on record as 8 log10; with L1210/CPA (mouse, in vivo) it was 7 log10; in the data set with P388/CPA (mouse, in vivo), 7 log10. The “efficacy compared with CPA and Ifos” value in the data set on B16 Melanoma is “slightly inferior to CPA but better than Ifos”. In addition, the “Median Day of Death” value in the data set with human lox-IMVI melanoma (in vivo) worked out at 29.0 days. In addition, the tolerability result with mice [2] is “tolerated intraperitoneal (IP) and intravenous (IV) treatment with IPM well”. For the same compound, in the data set on mice [3], the microscopic findings result is on record as “No obvious treatment-related microscopic findings”. Also, in “in vivo”, the LD50 fell in the range of 1400 to 3500 mg/kg.
For the compound `O=P1(NCCCl)OCCCN1CCCl` (stereo not shown) [Ifos, Ifosfamide], the “Net log10 Reduction” value with L1210/0 (mouse, in vivo) is reported as 8 log10; with P388/0 (mouse, in vivo), 7 log10; in the data set with P388/CPA (mouse, in vivo), 4 log10.
The compound `C=CC=O` [acrolein] came in with an LD50 in data set [1] (rabbit) of 80 µM.
For the compound `O=CCCl` [chloroacetaldehyde], in data set [1] (rabbit), the “concentration of complete inhibition” value amounted to 75 µM.

The values above are taken from patent publication US20110118209A1 (priority 2006, published 2011).
